{"source": "patent US8653135B1", "about": "“Alternating sympathomimetic therapy for the treatment of respiratory aliments” (Sovereign Pharmaceuticals, LLC, priority 2007, dated 2014)", "origin": "cited, not measured here", "conditions": "when given in adequate dosages", "data": [{"molecule": "CNC[C@H](O)c1cccc(O)c1", "note": "[Phenylephrine, phenylephrine]", "values": [{"measurement": "effect on heart rate", "result": "slows the heart rate"}]}]}
